Assay results: patent publication US20220409643A1, “ROR Gamma T Inhibitors and Topical Uses Thereof” (Dermira, inc., priority 2019, published 2022)

These compounds were tested on IL17A (assay: skin Resident Immune Cell Assay (sRICA), Th17 model, IL17A protein in media). Settings: 100 uM solution in 1% DMSO/OD applied topically to human skin; media collected 24 hours after Th17 activation.
Assay type: cell-based
Description: A skin Resident Immune Cell Assay (sRICA) was used to test compounds for reduction of IL-17A protein upregulation in the Th17 sRICA model. In this model, human surgical skin waste was cultured in a transwell system, with the dermis in contact with cell culture media and the stratum corneum exposed to air. To perform the assay, each human skin sample was defatted and dermatomed to 750μm. Next, 8 mm punch biopsies were obtained and placed in a membrane transwell. The transwells were inserted into culture wells with complete media, and a cocktail of cytokines and antibodies were added to promote skin resident immune cell polarization.
RORγt inhibitors were prepared as a 100 uM solution in 1% DMSO/OD. […] of the prepared topical solution was applied to sRICA wells prepared for topical drug evaluation. Drugs were allowed to penetrate the skin overnight, for up to 24 hours prior to Th17 activation. Media was collected 24 hours after Th17 activation for IL17A protein assessment. IL17A protein was evaluated using the Quanterix IL17A detection kit on the SiMoA platform (via CRO Translational Biosciences). There was significant upregulation of IL17A with Th17 activation. Each study was normalized to the % max of IL17A production (i.e. the average IL17A concentration of Th17 activated skin alone) was set to 100%, all other values (untreated no activation and treated samples) were obtained as a percentage of this. […]

Row | Structure (SMILES) | inhibition at 100 µM [%]
1 | COCc1ccc([C@@H](NC(=O)Cn2cnccc2=O)C(=O)Nc2ccc(C(C)(C)C)c(F)c2)cc1 | 72.1
2 | COc1ccc2c(c1)CCN(C(=O)c1cc(O)no1)[C@H]2C(=O)Nc1ccc(C(C)(C)C)c(F)c1 (stereo in doubt) [N-(4-tert-butyl-3-fluorophenyl)-2-((3-hydroxy-1,2-oxazol-5-yl)carbonyl)-6-methoxy-1,2,3,4-tetrahydroisoquinoline-1-carboxamide] | 36
3 | COc1ccc2c(c1)CCN(C(=O)c1cc(O)no1)[C@H]2C(=O)Nc1cc(F)c2c(c1)CCC2(C)C (stereo in doubt) [N-(7-fluoro-1,1-dimethyl-2,3-dihydro-1H-inden-5-yl)-2-((3-hydroxy-1,2-oxazol-5-yl)carbonyl)-6-methoxy-1,2,3,4-tetrahydroisoquinoline-1-carboxamide] | 42.3
4 | CCOc1ccc2c(c1)CCN(C(=O)Cc1cc(O)no1)[C@H]2C(=O)Nc1cc(F)c2c(c1)CCC2(C)C [(1R)-6-ethoxy-N-(7-fluoro-1,1-dimethyl-2,3-dihydro-1H-inden-5-yl)-2-((3-hydroxy-1,2-oxazol-5-yl)acetyl)-1,2,3,4-tetrahydroisoquinoline-1-carboxamide] | 67.9
5 | COCC(C)(C)c1c(F)cc(NC(=O)[C@H]2c3ccc(OC)cc3CCN2C(=O)c2cc(O)no2)cc1F [(1R)-N-(3,5-difluoro-4-(1-methoxy-2-methylpropan-2-yl)phenyl)-2-((3-hydroxy-1,2-oxazol-5-yl)carbonyl)-6-methoxy-1,2,3,4-tetrahydroisoquinoline-1-carboxamide] | 56.2
6 | COCC(C)(C)c1c(F)cc(NC(=O)[C@H]2c3ccc(OC)cc3CCN2C(=O)Cc2cc(O)no2)cc1F [(1R)-N-(3,5-difluoro-4-(1-methoxy-2-methylpropan-2-yl)phenyl)-6-methoxy-2-((3-hydroxy-1,2-oxazol-5-yl)acetyl)-1,2,3,4-tetrahydro-isoquinoline-1-carboxamide] | 46.3
7 | COCC(C)(C)c1ccc(NC(=O)[C@H]2c3ccc(OC)cc3CCN2C(=O)c2cc(O)no2)cc1F [(1R)-N-(3-fluoro-4-(1-methoxy-2-methylpropan-2-yl)phenyl)-2-((3-hydroxy-1,2-oxazol-5-yl)carbonyl)-6-methoxy-1,2,3,4-tetrahydroisoquinoline-1-carboxamide] | 55
8 | COc1ccc2c(c1)CCN(C(=O)Cc1cc(O)no1)[C@H]2C(=O)Nc1cc(F)c(C(C)(C)COCC(F)F)c(F)c1 [(1R)-N-(4-(1-(2,2-difluoroethoxy)-2-methylpropan-2-yl)-3,5-difluorophenyl)-2-((3-hydroxy-1,2-oxazol-5-yl)acetyl)-6-methoxy-1,2,3,4-tetrahydro-isoquinoline-1-carboxamide] | 39.3
9 | COc1ccc2c(c1)CCN(C(=O)c1cc(O)no1)[C@H]2C(=O)Nc1cc(F)c(C(C)(C)COCC(F)F)c(F)c1 [(1R)-N-(4-(1-(2,2-difluoroethoxy)-2-methylpropan-2-yl)-3,5-difluorophenyl)-2-((3-hydroxy-1,2-oxazol-5-yl)carbonyl)-6-methoxy-1,2,3,4-tetarhydroisoquinoline-1-carboxamide] | 30.3

Same assay, conditions: Homo sapiens, 24 h, 100 uM solution in 1% DMSO/OD applied topically to human skin; media collected 24 hours after Th17 activation

Row | Structure (SMILES) | inhibition at 100 µM [%]
10 | COCc1ccc([C@@H](NC(=O)Cn2ccc(=O)cc2)C(=O)Nc2ccc([Si](C)(C)C)c(F)c2)cc1 | 78.4
11 | COc1ccc([C@H](C(=O)Nc2ccc([Si](C)(C)C)c(F)c2)N(C)C(=O)c2cc(O)no2)cc1 | 76.9
12 | CC[Si](C)(C)c1c(F)cc(NC(=O)[C@H]2c3ccc(COC)nc3CCN2C(=O)Cc2cc(O)no2)cc1F | 68.9
13 | COc1ccc([C@@H](NC(=O)c2cc(O)no2)C(=O)Nc2ccc([Si](C)(C)C)c(F)c2)cc1 | 55.3
14 | COCc1ccc([C@@H](NC(=O)CNC(C)=O)C(=O)Nc2ccc([Si](C)(C)C)c(F)c2)cc1 | 48.8
15 | COCc1ccc([C@@H](NC(=O)Cn2c(=O)cc[nH]c2=O)C(=O)Nc2ccc([Si](C)(C)C)c(F)c2)cc1 | 40.7
16 | COCc1ccc([C@@H](NC(=O)C2CNC(=O)C2)C(=O)Nc2ccc([Si](C)(C)C)c(F)c2)cc1 (stereo in doubt) [(3R)-N-((1R)-2-((3-fluoro-4-(trimethylsilyl)phenyl)amino)-1-(4-(methoxymethyl)phenyl)-2-oxoethyl)-5-oxopyrrolidine-3-carboxamide] | 75.7
17 | CN(C(=O)c1cc(O)no1)[C@@H](C(=O)Nc1cc(F)c([Si](C)(C)C)c(F)c1)C1CCOCC1 (stereo in doubt) [N-(2-((3,5-difluoro-4-(trimethylsilyl)phenyl)amino)-2-oxo-1-(tetrahydro-2H-pyran-4-yl)ethyl)-3-hydroxy-N-methyl-1,2-oxazole-5-carboxamide] | 82.5
18 | COc1ccc2c(c1)CCN(C(=O)c1cc(O)no1)[C@H]2C(=O)Nc1ccc([Si](C)(C)C)c(F)c1 (stereo in doubt) [N-(3-fluoro-4-(trimethylsilyl)phenyl)-2-((3-hydroxy-1,2-oxazol-5-yl)carbonyl)-6-methoxy-1,2,3,4-tetrahydroisoquinoline-1-carboxamide] | 7.69
19 | COCc1ccc([C@@H](NC(=O)C2CCN(C(C)=O)CC2)C(=O)Nc2ccc([Si](C)(C)C)c(F)c2)cc1 [1-acetyl-N-((1R)-2-((3-fluoro-4-(trimethylsilyl)phenyl)amino)-1-(4-(methoxymethyl)phenyl)-2-oxoethyl)piperidine-4-carboxamide] | 77.5
20 | COc1ccc2c(c1)CCN(C(=O)CCCC(=O)O)[C@H]2C(=O)Nc1cc(F)c([Si](C)(C)C)c(F)c1 [5-((1R)-1-((3,5-difluoro-4-(trimethylsilyl)phenyl)carbamoyl)-6-methoxy-3,4-dihydroisoquinolin-2(1H)-yl)-5-oxopentanoic acid] | 76.6
21 | COCc1ccc2c(c1)CCN(C(=O)CCCC(=O)O)[C@H]2C(=O)Nc1cc(F)c([Si](C)(C)C)c(F)c1 [5-((1R)-1-((3,5-difluoro-4-(trimethylsilyl)phenyl)carbamoyl)-6-methoxymethyl-3,4-dihydroisoquinolin-2(1H)-yl)-5-oxopentanoic acid] | 77.4
22 | COCc1ccc2c(c1)CCN(C(=O)CCCC(=O)O)[C@H]2C(=O)Nc1ccc([Si](C)(C)C)c(F)c1 [5-((1R)-1-((3-fluoro-4-(trimethylsilyl)phenyl)carbamoyl)-6-(methoxymethyl)-3,4-dihydroisoquinolin-2(1H)-yl)-5-oxopentanoic acid] | 51.1
23 | COc1ccc2c(n1)CCN(C(=O)CCCC(=O)O)[C@H]2C(=O)Nc1ccc([Si](C)(C)C)c(F)c1 [5-((5R)-5-((3-fluoro-4-(trimethylsilyl)phenyl)carbamoyl)-2-methoxy-7,8-dihydro-1,6-naphthyridin-6(5H)-yl)-5-oxopentanoic acid] | 51.5
24 | CC[Si](C)(C)c1c(F)cc(NC(=O)[C@H]2c3ccc(OC)nc3CCN2C(=O)CCCC(=O)O)cc1F [5-((5R)-5-((4-(ethyl(dimethyl)silyl)-3,5-difluorophenyl)carbamoyl)-2-methoxy-7,8-dihydro-1,6-naphthyridin-6(5H)-yl)-5-oxopentanoic acid] | 41.9
25 | COCc1ccc([C@@H](NC(=O)CCCC(=O)O)C(=O)Nc2cc(F)c([Si](C)(C)C)c(F)c2)cc1 [5-(((1R)-2-((3,5-difluoro-4-(trimethylsilyl)phenyl)amino)-1-(4-(methoxymethyl)phenyl)-2-oxoethyl)amino)-5-oxopentanoic acid] | 26.7
26 | COc1ccc2c(c1)CCN(C(=O)Cc1cc(O)no1)[C@H]2C(=O)Nc1cc(F)c([Si](C)(C)C)c(F)c1 [(1R)-N-(3,5-difluoro-4-(trimethylsilyl)phenyl)-2-((3-hydroxy-1,2-oxazol-5-yl)acetyl)-6-methoxy-1,2,3,4-tetrahydroisoquinoline-1-carboxamide] | 49.2
27 | COc1ccc2c(c1)CCN(C(=O)Cc1cc(O)no1)[C@H]2C(=O)Nc1ccc([Si](C)(C)C)c(C#N)c1 [(1R)-N-(3-cyano-4-(trimethylsilyl)phenyl)-2-((3-hydroxy-1,2-oxazol-5-yl)acetyl)-6-methoxy-1,2,3,4-tetrahydroisoquinoline-1-carboxamide] | 42.8
28 | COCc1ccc2c(c1)CCN(C(=O)Cc1cc(O)no1)[C@H]2C(=O)Nc1ccc([Si](C)(C)C)c(F)c1 [(1R)-N-(3-fluoro-4-(trimethylsilyl)phenyl)-2-((3-hydroxy-1,2-oxazol-5-yl)acetyl)-6-(methoxymethyl)-1,2,3,4-tetrahydroisoquinoline-1-carboxamide] | 69.9
29 | COc1ccc2c(c1)CCN(C(=O)Cc1cc(O)no1)[C@H]2C(=O)Nc1ccc([Si](C)(C)C)c(F)c1 [(1R)-N-(3-fluoro-4-(trimethylsilyl)phenyl)-2-((3-hydroxy-1,2-oxazol-5-yl)acetyl)-6-methoxy-1,2,3,4-tetrahydroisoquinoline-1-carboxamide] | 31.2
30 | COCc1ccc2c(c1)CCN(C(=O)c1cc(O)no1)[C@H]2C(=O)Nc1ccc([Si](C)(C)C)c(F)c1 [(1R)-N-(3-fluoro-4-(trimethylsilyl)phenyl)-2-((3-hydroxy-1,2-oxazol-5-yl)carbonyl)-6-methoxymethyl-1,2,3,4-tetrahydroisoquinoline-1-carboxamide] | 62.2
